Measurements: US20200360537A1, “A GANGLIOGLIOMA-INDUCED ANIMAL MODEL AND A METHOD FOR DIAGNOSING AND TREATING GANGLIOGLIOMA AND RELATED DISEASES” (KOREA ADVANCED INSTITUTE OF SCIENCE AND TECHNOLOGY, priority 2017, published 2020)

Tested on: BRAF V600E mutant mice
Assay: Seizure reduction by BRAF V600E specific inhibitor in BRAF V600E mutant mice (video-EEG brainwave monitoring)
Type: in vivo, mouse

CCCS(=O)(=O)Nc1ccc(F)c(C(=O)c2c[nH]c3ncc(-c4ccc(Cl)cc4)cc23)c1F [BRAF V600E specific inhibitor, Vemurafenib]
seizure frequency (acute intracerebroventricular injection (3 times/day, 5 uL injection for 8 minutes), FIG. 17 left): not reduced
seizures over time (electrophysiologically confirmed) (cICV treatment for 6 weeks, FIG. 15 C): continuously reduced
reduction of icta (ictal) seizures (chronic intracranioventricular injection (cICV), 500 um PLX4032 via osmotic pump, vs vehicle, FIG. 15 B): about 4 times
seizure frequency (oral administration (PO, per oral), FIG. 17 right): not reduced
